Data published in patent publication US4526888A, “Nephrotoxicity inhibitors for aminoglycoside antibiotics” (Bristol-Myers Company, priority 1983, dated 1985).
“And” between values parts separate entries of the source, which are not always exact repeats. Equal entries are not always repeated. Where two headings read alike, the source gives them in different places.

Tests used:
rats [1] = conditions: rat, in vivo
Excerpt: (§1) A fourteen (14) day subacute nephrotoxicity model in rats was utilized to test the in vivo efficacy of aminoglycoside-transport inhibitor combinations. […] Though blood urea nitrogen (BUN) was monitored as a clinical parameter of renal function, the primary evaluation of nephrotoxicity in this model involves histopathologic examination of renal tissue, which is a more accurate and sensitive method for assessing nephrotoxicity [Hottendorf et al., Antimicrob.
(§2) Male Sprague-Dawley rats [Charles River Breeding Laboratories, Inc., (CRL: COBS CD (SD) BR)] approximately 6 weeks old and weighing 140-160 gms upon arrival were used. They were conditioned for at least 5 days prior to the start of the study. Only animals found to be clinically healthy were selected. Rats were identified individually by number on the tail with black marking pens. During the study the rats were housed individually in cages of the appropriate size and type in a temperature-controlled room. Rodent Laboratory Chow (pellet, Purina Ralston Company) and water was offered ad libitum.
(§3) The aminoglycoside and aminoglycoside-inhibitor mixtures were administered subcutaneously twice daily for 14 days.
(§4) All rats were euthanized by an overdose of sodium pentobarbital on study Day 15.
(§5) The kidneys were removed and examined grossly. A longitudinal section of the left kidney and a cross section of the right kidney from each rat were preserved in 10% neutral buffered Formalin for histopathological evaluation. Tissue sections (6 μm each) were stained with hematoxylin and eosin, and the resulting tissue slides were randomized, masked, and examined by a single pathologist without knowledge of the animal's treatment.
(§6) Lesions encountered in the renal cortex included tubular vacuolar or granular degeneration, peritubular inflammation, tubular necrosis, tubular dilatation, tubular basophilia, and interstitial fibrosis. The extent and distribution of each of these lesions in both kidneys of every rat were scored as follows: 0, absence of lesion; 1, lesion represented in fewer than 10% of the nephrons; 2, lesion represented in 10 to 50% of the nephrons; 3, lesion represented in 50 to 90% of the nephrons; and 4, lesion represented in more than 90% of the nephrons. Since these lesions are all interrelated and represent various stages of proximal tubular damage, the lesion scores were summed to produce a single nephrotoxicity response for each animal, with a possible severity range of 0 to 24.
(§7) Nephrotoxicity was monitored by blood urea nitrogen (BUN) analysis and histopathologic examination of renal tissue.
(§8) Aminoglycosides and aminoglycoside-inhibitor mixtures were administered subcutaneously twice daily for fourteen days.
(§9) All rats were euthanized by an overdose of sodium pentobarbital on study Day 15. The kidneys were removed, examined grossly and placed in 10% neutral buffered formalin for subsequent histopathologic evaluation.

[2] = system: renal brush border membranes of proximal tubule cells; test: In vitro gentamicin transport inhibition, isolated renal brush border membrane vesicles; format: biochemical; conditions: 3H-gentamicin transport, rat renal brush border membrane vesicles, 30 second incubation; multiple of aminoglycoside molar concentration
Excerpt: An in vitro screening program was established to study the selective inhibition of aminoglycoside transport across renal brush border membranes of proximal tubule cells. The screening tests employed isolated, purified brush border membrane as described by Kinsella et al., Biochem. Biophys. Acta., 552: 468-477 (1979) and Williams et al., Tox. Applied Pharmacol., 61: 243-251 (1981), comprising isolation and purification of rat renal cortical membranes via differential centrifugation, cationic precipitation and discontinuous sucrose gradient techniques. […] The transport was quantified by liquid scintillation techniques as described by Kinsella et al., J. Pharmacol. Exp. Ther., 209: 443-450 (1979). Gentamicin transport was characterized, FIG. 1, as to time and concentration dependency, and as to specificity. Gentamicin transport was then measured at a fixed concentration of gentamicin (0.5 mM) in the presence of prospective inhibitors at 5X molar concentration. […] The reaction media was then vacuum filtered on 0.3 micron Millipore filters. The filters were washed twice with 2 ml of the buffer and removed and counted using liquid scintillation spectroscopy techniques. […] The inhibitors were solubilized in the above-described buffer.

rats [3] = test: Fourteen day subacute nephrotoxicity model in rats, histopathologic examination of renal tissue; conditions: for in vivo nephroprotective activity (in words): summary of Table III
Excerpt: as §1, §2, §3, §4, §5, §6, §7, §8, §9

[4] = multiple of AG dose: Molar 0.1 (Mg 0.7 Lysine20, 2 Asparagine90)
[5] = multiple of AG dose: Molar 0.3 (Mg 15 Lysine10, 10 Aspartic acid90, 6 Asparagine90)
[6] = multiple of AG dose: Molar 1 (Mg 15 Glutamic acid60, 20 Asparagine90)

## NCC[C@H](O)C(=O)N[C@@H]1C[C@H](N)[C@@H](O[C@H]2O[C@H](CN)[C@@H](O)[C@H](O)[C@H]2O)[C@H](O)[C@H]1O[C@H]1O[C@H](CO)[C@@H](O)[C@H](N)[C@H]1O.O=S(=O)(O)O.O=S(=O)(O)O [AMIKACIN, amikacin sulfate]
Rats [1]
  nephrotoxicity in this test (conclusion in words): demonstrates the nephrotoxicity of amikacin

## O=S(=O)([O-])CO.[Na+] [Sodium formaldehyde bisulfite]
[2]
  I50 (molar multiples producing 50% transport inhibition): 10 X
Rats [3]; multiple of AG dose: Molar 136, Mg 40
  Nephroprotective Activity: + (less than 50% reduction)

## NCCCNCCCCNCCCN [Spermine]
[2]
  I50 (molar multiples producing 50% transport inhibition): 3 X

## Poly-l-asparagine90
[2]
  I50 (molar multiples producing 50% transport inhibition): 0.1 X
Rats [3]; [4]
  Nephroprotective Activity: + (less than 50% reduction)
Rats [3]; multiple of AG dose: Molar 0.15, Mg 3
  Nephroprotective Activity: + (less than 50% reduction)
Rats [3]; [5]
  Nephroprotective Activity: + (less than 50% reduction)
Rats [3]; multiple of AG dose: Molar 0.5, Mg 10
  Nephroprotective Activity: +++ (reduction 100%)
Rats [3]; [6]
  Nephroprotective Activity: +++ (reduction 100%)
Rats [3]
  in vivo nephroprotective activity (in words): greatest degree of in vivo nephroprotective activity

## Poly-l-aspartic Acid90
[2]
  I50 (molar multiples producing 50% transport inhibition): < 0.1 X
Rats [3]; [5]
  Nephroprotective Activity: +++ (reduction 100%)
Rats [3]
  in vivo nephroprotective activity (in words): greatest degree of in vivo nephroprotective activity

## Poly-l-glutamic Acid60
[2]
  I50 (molar multiples producing 50% transport inhibition): < 0.1 X
Rats [3]; [6]
  Nephroprotective Activity: 0

## Poly-l-lysine10
[2]
  I50 (molar multiples producing 50% transport inhibition): 1 X
Rats [3]; [5]
  Nephroprotective Activity: 0

## Tetralysine [Lysine4]
[2]
  I50 (molar multiples producing 50% transport inhibition): 10 X
Rats [3]; multiple of AG dose: Molar 16, Mg 25
  Nephroprotective Activity: 0

## gentamicin sulfate [GENTM]
Rats [3]; Example II Group II, gentamicin 10 mg/kg sc twice daily 14 days
  Histopath. Score (TOTAL), group value below animal scores: 4.2
Rats [3]; Example II Group II, gentamicin 10 mg/kg sc twice daily 14 days, Day 15, range 0 to 24
  Histopath. Score (TOTAL), individual animal: 1 and 5 and 6 and 4
Rats [3]; Example II Group III, gentamicin 20 mg/kg
  Histopath. Score (TOTAL), group value below animal scores: 4.8
Rats [3]; Example II Group III, gentamicin 20 mg/kg sc twice daily 14 days
  Histopath. Score (TOTAL), individual animal: 4 and 3 and 5 and 8
Rats [3]; Example III Group II, gentamicin 20 mg/kg
  Histopath. Score (TOTAL), group value below rat scores: 8.8
Rats [3]; Example III Group II, gentamicin 20 mg/kg sc twice daily fourteen days
  Histopath. Score (TOTAL), individual rat: 8 and 9 and 10
Rats [3]; aminoglycoside alone groups
  nephrotoxicity in this test (conclusion in words): demonstrates the nephrotoxicity of gentamicin
Rats [3]; bid, 14 days, rats
  dose necessary to elicit a significant and reproducible nephrotoxic response: 20 mg/kg/day

## polylysine20
[2]
  I50 (molar multiples producing 50% transport inhibition): 0.05 X
Rats [3]; [4]
  Nephroprotective Activity: + (less than 50% reduction)
Rats [3]
  in vivo nephroprotective activity (in words): showed any nephroprotective activity
